Reference: PubChem BioAssay (NCI)
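Interpolation was linear, between the two tested concentrations surrounding the appropriate level; five concentrations were tested over 48 hours in 96-well plates. The concentration for 50% growth inhibition is given as GI50. TGI marks complete inhibition of growth.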

How the values were obtained:
Assay in all cases: inhibition of tumour cell growth, NCI panel, 48 h
786-0 renal = test system: 786-0 renal
A498 renal = test system: A498 renal
NCI-H226 lung = test system: NCI-H226 lung
OVCAR-3 ovarian = test system: OVCAR-3 ovarian
OVCAR-8 ovarian = test system: OVCAR-8 ovarian
RXF 393 renal = test system: RXF 393 renal
SK-MEL-2 melanoma = test system: SK-MEL-2 melanoma
SK-MEL-5 melanoma = test system: SK-MEL-5 melanoma
SNB-19 CNS = test system: SNB-19 CNS
SNB-75 CNS = test system: SNB-75 CNS

Compound | GI50 (786-0 renal) [µM] | TGI (786-0 renal) [µM] | GI50 (A498 renal) [µM] | TGI (A498 renal) [µM] | GI50 (NCI-H226 lung) [µM] | TGI (NCI-H226 lung) [µM] | GI50 (OVCAR-3 ovarian) [µM] | TGI (OVCAR-3 ovarian) [µM] | GI50 (OVCAR-8 ovarian) [µM] | TGI (OVCAR-8 ovarian) [µM] | GI50 (RXF 393 renal) [µM] | TGI (RXF 393 renal) [µM] | GI50 (SK-MEL-2 melanoma) [µM] | TGI (SK-MEL-2 melanoma) [µM] | GI50 (SK-MEL-5 melanoma) [µM] | TGI (SK-MEL-5 melanoma) [µM] | GI50 (SNB-19 CNS) [µM] | TGI (SNB-19 CNS) [µM] | GI50 (SNB-75 CNS) [µM] | TGI (SNB-75 CNS) [µM]
CC[C@H](CC#N)OC(=O)N[C@@H](C)c1cccc(NC(=O)Nc2ccc(-c3cnco3)c(OC)c2)c1 | 0.188 | > 93 | 0.138 | 20.8 | 2 | 38.4 | 0.0894 | 45 | 0.0612 | 23.5 | 0.266 | > 22.9 | 4.05 | 34.8 | 0.18 | 16.4 | 0.125 | > 100 | 0.11 | 27.8
N[C@H](C(=O)O)[C@H](Cl)CC(=O)O |  | > 100 |  | > 100 |  | > 100 |  | > 100 |  | > 100 |  | > 100 |  | > 100 |  | > 100 |  | > 100 |  | > 100
COc1ccc2c3c(c(=O)n(C)c2c1OC)C=CC(C)(C)O3 |  | > 100 |  | 71.7 |  | 80.9 |  | > 100 |  | > 100 |  | > 100 |  | > 100 |  | 30.1 |  | > 100 |  | 48.2
COc1cc[nH]c1/C=C1\C(=O)Nc2ccc(F)c(I)c21 | > 25 | > 25 | > 25 | > 25 | > 25 | > 25 | > 25 | > 25 | > 25 | > 25 | > 25 | > 25 | > 25 | > 25 | > 25 | > 25 | > 25 | > 25 | > 25 | > 25
C[C@@H]1COCCN1c1cc(C2(S(C)(=N)=O)CC2)nc(-c2ccnc3[nH]ccc23)n1 (stereo not given in full) | 1.25 | 96.8 | 0.146 | 1.69 | 3.94 | 76.8 | 5.76 | 38.9 | 5.41 | 58.5 | 1.46 | 6.76 | 4.59 | 18.9 | 4.17 | 35 | 3.92 | 42.2 | 1.64 | 12.8
Cc1cccc(C(C)C)c1NC(=O)C(=O)CC(=O)c1c(C)n([O-])c2ccccc2[n+]1=O |  | > 100 |  | > 100 |  | > 100 |  | 22 |  | > 100 |  | > 100 |  | 98.1 |  | > 100 |  | > 100 |  | 71.1
O=C(CN1CCN(c2ccccc2)CC1)N1CCc2c([nH]c3ccccc23)C1c1cccnc1 (stereo not given) |  | 50.8 |  | > 100 |  | > 100 |  | > 100 |  | > 100 |  | 49.5 |  | > 100 |  | > 100 |  | > 100 |  | 23.4
COc1ccc2oc3cccc(NCCN(C)C)c3c(=O)c2c1 |  | 23.5 |  | 33.8 |  | 32 |  | 28.5 |  | 23.7 |  | 26.4 |  | 30.2 |  | 30.9 |  | 28.9 |  | 31
